Read-outs that look alike come from different tables or passages of the source.
Legend:
[1] = system: LPS-induced microglia PGE2 synthesis; conditions: cited from earlier work
[2] = system: LPS-activated rat neonatal microglia; test: OPZ-stimulated TXB2 generation by LPS-activated rat neonatal microglia (immunoassay); format: cell-based; conditions: for IC50 / inhibition at 10 µM: Rattus norvegicus, Microglia; for IC50: OPZ 0.5 mg/mL, 70 min, LPS 0.3 ng/mL 17 h; for OPZ-stimulated TXB2 generation, % of control / OPZ-stimulated TXB2 released / inhibition at 10 µM: at 10 μM
Experimental: (§1) All experiments were performed with adherence to the National Institutes of Health guidelines on the use of experimental animals and with protocols approved by Midwestern University's Research and Animal Care Committee. To isolate rat neonatal microglia, cerebral cortices of 1–2 day-old Sprague-Dawley rats purchased from Harlan (Indianapolis, IN) were surgically removed and placed in cold DMEM + 10% FBS + 120 U/ml P and 12 μg/ml S, the meninges carefully removed, and brain tissue minced and dissociated with trypsin-EDTA at 36°C for 3–5 min. The mixed astroglial cell suspension was plated in either 75- or 162-cm^2 vented cell culture flasks with DMEM medium supplemented with 10% FBS + 120 U/ml P + 12 μg/ml S and grown in a humidified 5% CO2 incubator at 36°C for 12–14 days. […] Microglia were characterized as described earlier.
(§2) To study the effects of manzamines A, B, C, D, E and F on the generation of TXB2 and O2^-, rat neonatal microglia (2 × 10^5 cells/24-well cell culture clusters) were treated to the following protocol. Seventeen hours prior to the experiments, microglia cells were treated with LPS (0.3 ng/ml) in a final volume of 1 ml of DMEM supplemented with 10% FBS + 120 U/ml P + 12 μg/ml. […] O2^-, TXB2 and lactate dehydrogenase (LDH) release were assayed as described below.
(§3) Following the incubation of LPS-activated microglia with HBSS, manzamines or vehicle as explained above, PMA- (1 μM) or OPZ- (0.5 mg/mL)triggered TXB2 generation in the culture supernatants was measured using immunoassays (Cayman Chemical, Ann Arbor, MI) as indicated by the manufacturer's protocol. Results were expressed as pg/mL produced after 70 min of PMA or OPZ stimulation.

[3] = system: LPS-activated rat neonatal microglia; test: PMA-stimulated TXB2 generation by LPS-activated rat neonatal microglia (immunoassay); format: cell-based; conditions: for IC50 / inhibition at 10 µM: Rattus norvegicus, Microglia; for IC50: PMA 1 μM, 70 min, LPS 0.3 ng/mL 17 h, manzamine added 15 min before; for PMA-stimulated TXB2 release, % of control / PMA-stimulated TXB2 released / inhibition at 10 µM: at 10 μM; for inhibition at 10 µM: read-out: maximum inhibition of PMA-stimulated TXB2 generation
Experimental: as §1, §2, §3

[4] = system: LPS-activated rat neonatal microglia; test: OPZ-stimulated O2^- generation by LPS-activated rat neonatal microglia (SOD-inhibitable FCC reduction); format: cell-based; conditions: for IC50: OPZ 0.5 mg/mL, 70 min, LPS 0.3 ng/mL 17 h; for effect on OPZ-stimulated O2^- generation: even at 10 μM
Experimental: as §1, §2
(§4) O2^- generation was determined by the SOD-inhibitable reduction of FCC [23]. […] All experimental treatments were run in triplicate and in a final volume of 1 ml. Changes in FCC absorbance were measured at 550 nm using a Beckman DU-650 spectrophotometer.

[5] = system: LPS-activated rat neonatal microglia; test: PMA-stimulated O2^- generation by LPS-activated rat neonatal microglia (SOD-inhibitable FCC reduction); format: cell-based; conditions: for IC50 / inhibition at 10 µM: Rattus norvegicus, Microglia; for IC50: PMA 1 μM, 70 min, LPS 0.3 ng/mL 17 h
Experimental: as §1, §2, §4

[6] = target: hypoxanthine-xanthine oxidase system (Homo sapiens, UniProt P47989); test: Cell-free O2^- generation by hypoxanthine-xanthine oxidase system (scavenging test); format: biochemical; conditions: for O2^- generated by hypoxanthine-xanthine oxidase system: control (DMSO) 12 ± 1.1, test concentration not given
Sequence of hypoxanthine-xanthine oxidase system (P47989 whole entry): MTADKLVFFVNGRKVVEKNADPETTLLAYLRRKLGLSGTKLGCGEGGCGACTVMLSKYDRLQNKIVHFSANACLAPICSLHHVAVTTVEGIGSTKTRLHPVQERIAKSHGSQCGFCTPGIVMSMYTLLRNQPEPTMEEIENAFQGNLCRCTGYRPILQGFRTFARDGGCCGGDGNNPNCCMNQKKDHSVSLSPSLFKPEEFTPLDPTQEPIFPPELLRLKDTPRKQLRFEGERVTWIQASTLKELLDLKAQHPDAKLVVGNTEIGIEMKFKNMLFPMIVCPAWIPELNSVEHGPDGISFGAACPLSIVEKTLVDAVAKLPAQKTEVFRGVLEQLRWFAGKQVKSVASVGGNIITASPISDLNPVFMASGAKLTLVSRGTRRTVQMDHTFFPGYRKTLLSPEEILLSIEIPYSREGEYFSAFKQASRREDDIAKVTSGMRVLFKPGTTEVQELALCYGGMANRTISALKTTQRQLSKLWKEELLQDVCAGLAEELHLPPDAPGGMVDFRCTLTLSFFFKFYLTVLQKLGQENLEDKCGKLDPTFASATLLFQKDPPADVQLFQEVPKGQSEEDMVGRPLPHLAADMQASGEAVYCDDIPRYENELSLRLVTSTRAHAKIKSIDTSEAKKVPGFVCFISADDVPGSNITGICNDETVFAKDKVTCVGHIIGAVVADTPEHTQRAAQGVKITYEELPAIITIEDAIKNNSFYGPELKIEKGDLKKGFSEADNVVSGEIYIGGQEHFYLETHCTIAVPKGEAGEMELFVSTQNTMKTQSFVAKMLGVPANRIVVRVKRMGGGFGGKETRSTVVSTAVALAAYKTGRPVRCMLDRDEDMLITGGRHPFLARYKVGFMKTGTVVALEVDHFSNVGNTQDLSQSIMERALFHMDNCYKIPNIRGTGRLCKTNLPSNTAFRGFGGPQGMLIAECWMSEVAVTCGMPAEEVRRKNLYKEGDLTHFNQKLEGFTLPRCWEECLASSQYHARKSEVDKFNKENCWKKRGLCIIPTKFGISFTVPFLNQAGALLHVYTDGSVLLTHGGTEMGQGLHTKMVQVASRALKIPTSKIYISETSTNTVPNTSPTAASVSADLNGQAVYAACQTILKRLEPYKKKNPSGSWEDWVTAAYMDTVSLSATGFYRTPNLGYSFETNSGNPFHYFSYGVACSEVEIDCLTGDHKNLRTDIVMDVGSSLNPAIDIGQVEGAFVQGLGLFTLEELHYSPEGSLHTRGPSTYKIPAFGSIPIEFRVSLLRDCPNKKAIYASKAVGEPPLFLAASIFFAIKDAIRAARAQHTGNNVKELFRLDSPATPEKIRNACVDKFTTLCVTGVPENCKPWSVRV
Experimental: A standard hypoxanthine-xanthine oxidase system was used as a cell-free source of O2^-. O2^- was generated by incubation of purified xanthine oxidase (0.02 Units/ml) with hypoxanthine (1.5 mM) at 37°C [21]. O2^- formation was assessed spectrophotometrically as the increase in absorbance at 550 nm associated with the SOD (30 U/mL)-inhibitable reduction FCC (50 μM) as described above for rat microglia O2^- generation and expressed in nmoles/30 minutes.

[7] = system: LPS-activated rat neonatal microglia; test: LDH release (cytotoxicity) from LPS-activated rat neonatal microglia; format: cell-based
Experimental: as §2, with “μg/ml. Thereafter the media was removed and replaced with 1 ml warm HBSS, one of the manzamines (0.1–10 μM final concentration) or vehicle (DMSO) was added, and the microglia incubated for fifteen minutes in a humidified 5% CO2 incubator at 35.9°C. After the fifteen minute preincubation period with either manzamines or vehicle, PMA (1 μM) or OPZ (0.5 mg/mL) was added and microglia incubated for 70 minutes in a humidified 5% CO2 incubator at 35.9°C in the presence of the manzamines or vehicle.” for “μg/ml.”
Lactate dehydrogenase (LDH) release from microglia was determined spectrophotometrically as described elsewhere. Microglia LDH release was expressed as a percentage of total LDH. Total LDH resulted from 0.1% Triton X-100-lysed microglia cells (intracellular LDH) plus LDH released to the extracellular medium.

activated rat microglia = conditions: read-out: IC50, PMA-stimulated O2^- generation in microglia; cited from earlier work
[8] = parameters: method as in PMID 10817722; conditions: cited from earlier work
[9] = read-out: apparent IC50, LPS-induced microglia PGE2 synthesis

Compound	IC50 [2] [µM]	OPZ-stimulated TXB2 released [2]	IC50 [3] [µM]	PMA-stimulated TXB2 released [3]	IC50 ([4]; Rattus norvegicus, Microglia) [µM]	IC50 [5] [µM]	O2^- generated by hypoxanthine-xanthine oxidase system [6] [nmoles/30 min]	other results
CC(=O)Oc1ccccc1C(=O)O [acetylsalicylic acid]	–	–	–	–	–	–	–	IC50 ([1]; COX-1 inhibitor, read-out: IC50, LPS-induced microglia PGE2 synthesis): 3.12 to 10 µM
C1=C\CC[C@]23CN4CCCC/C=C\CC[C@@]5(O[C@H]5[C@@H](c5nccc6c5[nH]c5ccccc56)[C@@H]2CC4)[C@@H]3NCCCC/1 [MZB, manzamine B]	1.44	1,160 ± 207 pg of TXB2 per 200,000 microglia per 70 min	1.6	546.3 ± 281 pg of TXB2 per 200,000 microglia per 70 min	4.17	3.16	15.3 ± 2.4	OPZ-stimulated TXB2 generation, % of control [2]: 25.6 % of control; PMA-stimulated TXB2 release, % of control [3]: 15.5 % of control; OPZ-stimulated O2^- generation, % of control ([4]; at 10 μM): 16.5 % of control; OPZ-stimulated O2^- released ([4]; at 10 μM): 1.5 ± 0.7 O2^- nmol per 200,000 microglia per 70 min; PMA-stimulated O2^- release, % of control ([5]; at 10 μM): 20 % of control; PMA-stimulated O2^- released ([5]; at 10 μM): 2.14 ± 2.14 nmol of O2^- per 200,000 microglia per 70 min; concentrations cytotoxic to neonatal brain microglia [7]: above 1 μM
superoxide dismutase: superoxide dismutase (from bovine liver), Sigma	–	–	–	–	–	–	–	effect on hypoxanthine-xanthine oxidase O2^- generation [6]: abolished
COc1ccc2c(c1)c(CC(=O)O)c(C)n2C(=O)c1ccc(Cl)cc1 [indomethacin]	–	–	–	–	–	–	–	IC50 [1, 9]: 0.001 µM
CO[C@]12C[C@@H](COC(=O)c3cncc(Br)c3)CN(C)[C@@H]1Cc1cn(C)c3cccc2c13 [nicergoline]	–	–	–	–	–	–	–	IC50 (activated rat microglia): 10 to 15 µM
O=C1CCCN2[C@@H](CC1)C[C@]13CN4CCCC/C=C\CC[C@](O)(C=C(c5nccc6c5[nH]c5ccccc56)[C@@H]1CC4)[C@H]23 [MZE, manzamine E]	> 10	2,594 ± 646 pg of TXB2 per 200,000 microglia per 70 min	> 10	1,614 ± 628 pg of TXB2 per 200,000 microglia per 70 min	> 10	> 10	16.3 ± 2.2	inhibition at 10 µM [2]: 43.1%; inhibition at 10 µM [3]: 49.4%; effect on OPZ-stimulated O2^- generation [4]: did not affect; inhibition at 10 µM ([5]; at 10 μM): 26.3%; PMA-stimulated O2^- released ([5]; at 10 μM): 8.5 ± 2.1 nmol of O2^- per 200,000 microglia per 70 min
O[C@]12C=C(C3NCCc4c3[nH]c3ccccc43)[C@@H]3CCN(CCCC/C=C\CC1)C[C@@]31C[C@@H]3/C=C\CCCCN3[C@H]12 (stereo partly drawn) [MZD, manzamine D]	> 10	3,613 ± 469 pg of TXB2 per 200,000 microglia per 70 min	0.23	611 ± 342 pg of TXB2 per 200,000 microglia per 70 min	> 10	< 0.1	22.2 ± 2	OPZ-stimulated TXB2 generation, % of control [2]: 79.9 % of control; PMA-stimulated TXB2 release, % of control [3]: 18.8 % of control; effect on OPZ-stimulated O2^- generation [4]: did not affect; PMA-stimulated O2^- release, % of control ([5]; at 0.1 μM): 14 % of control; PMA-stimulated O2^- released ([5]; at 0.1 μM): 0.7 ± 0.7 nmol of O2^- per 200,000 microglia per 70 min
O[C@]12C=C(c3nccc4c3[nH]c3ccccc34)[C@@H]3CCN(CCCC/C=C\CC1)C[C@@]31C[C@@H]3/C=C\CCCCN3[C@H]12 [MZA, manzamine A]	3.16	1,927 ± 474 pg of TXB2 per 200,000 microglia per 70 min	< 0.016	78.3 ± 45 pg of TXB2 per 200,000 microglia per 70 min	> 10	0.1	15.3 ± 4.4	inhibition at 10 µM [2]: 58%; inhibition at 10 µM [3]: 95.5%; OPZ-stimulated O2^- released ([4]; at 10 μM): 9.5 ± 1 O2^- nmol per 200,000 microglia per 70 min; effect on OPZ-stimulated O2^- generation [4]: did not appear to affect; inhibition at 10 µM ([5]; at 10 μM): 55.9 ± 6.1%; in vivo toxicity [8]: lack of significant in vivo toxicity
C1=C\CCCCN(CCc2nccc3c2[nH]c2ccccc23)CCCC/1 [MZC, manzamine C]	3.34	1,345 ± 160 pg of TXB2 per 200,000 microglia per 70 min	2.98	677 ± 293 pg of TXB2 per 200,000 microglia per 70 min	9.3	3.43	20.7 ± 3.1	OPZ-stimulated TXB2 generation, % of control [2]: 29.8 % of control; PMA-stimulated TXB2 release, % of control [3]: 19.6 % of control; OPZ-stimulated O2^- generation, % of control ([4]; at 10 μM): 41.6 % of control; OPZ-stimulated O2^- released ([4]; at 10 μM): 3.9 ± 0.3 O2^- nmol per 200,000 microglia per 70 min; PMA-stimulated O2^- release, % of control ([5]; at 10 μM): 36.1 % of control; PMA-stimulated O2^- released ([5]; at 10 μM): 3.7 ± 2.2 nmol of O2^- per 200,000 microglia per 70 min
CCCn1cnc2c1c(=O)n(CCCCC(C)=O)c(=O)n2C [propentofylline]	–	–	–	–	–	–	–	IC50 (activated rat microglia): > 100 µM
O=C1CCCN2[C@@H](CC1)C[C@]13CN4CCCC/C=C\CC[C@](O)(C=C(c5nccc6c5[nH]c5c(O)cccc56)C1CC4)[C@H]23 (stereo partly drawn) [MZF, manzamine F]	> 10	3,317 ± 121 pg of TXB2 per 200,000 microglia per 70 min	> 10	3,202 ± 1,139 pg of TXB2 per 200,000 microglia per 70 min	> 10	> 10	20.1 ± 3.6	inhibition at 10 µM [2]: 26.2%; PMA-stimulated TXB2 release, % of control [3]: 104.1 ± 24.7 % of control; inhibition at 10 µM ([4]; Rattus norvegicus, Microglia, at 10 μM, non-statistically significant): 15.7%; PMA-stimulated O2^- release, % of control ([5]; at 10 μM): 113 ± 14.5 % of control; PMA-stimulated O2^- released ([5]; at 10 μM): 12.8 ± 1.6 nmol of O2^- per 200,000 microglia per 70 min
CS(=O)(=O)Nc1ccc([N+](=O)[O-])cc1OC1CCCCC1 [NS-398]	–	–	–	–	–	–	–	IC50 [1, 9]: 0.001 to 0.005 µM
CC(C(=O)O)c1ccc(-c2ccccc2)c(F)c1 (stereo not drawn) [flurbiprofen]	–	–	–	–	–	–	–	IC50 ([1]; COX-1 inhibitor, read-out: apparent IC50, LPS-induced microglia PGE2 synthesis): 0.1 µM
C=CCN1C[C@H](C(=O)N(CCCN(C)C)C(=O)NCC)C[C@@H]2c3cccc4[nH]cc(c34)C[C@H]21 [cabergoline]	–	–	–	–	–	–	–	IC50 (activated rat microglia): > 100 µM
